Source: patent US20210106708A1, “THERMORESPONSIVE COMPOSITIONS AND METHODS FOR PREVENTING AND DISRUPTING BIOFILMS” (CASE WESTERN RESERVE UNIVERSITY, priority 2018, published 2021)
Entries after “also recorded” stand apart in the source; their conditions may differ. Structures can show the parent of a compound that is named as a salt.

Tests used:
[1] = test system: S. aureus biofilms; assay: Biofilm dispersal assay (crystal violet stain); assay type: cell-based
Description: S. aureus were cultured overnight in agar plates or in lysogeny broth (LB) with agitation (200 rpm) at 37° C. Biofilm formation was evaluated under static conditions using 12-well plates (Falcon, USA). Bacterial cultures made overnight were diluted to an OD595 of 0.1 and further diluted 100× (˜10^5 CFU/mL) in modified tryptic soy broth (3% NaCl, 0.5% glucose) and each well was filled with 2 mL of the diluted bacterial solution and incubated at 37° C. for 24 h. Biofilm dispersal activities were evaluated by removing the culture media from the biofilms after 24 h and replacing it with saline solution (0.9% NaCl) containing either individual or a combination of amino acids at the specified concentrations (pH 7.4), or the other antimicrobial agents used in the clinic (vancomycin, bacitracin, NeutroPhase, Hibiclens). After exposure to the different treatment methods, the plates were gently washed with phosphate buffered saline (PBS, 1×) thrice and then stained with 500 μL of 0.1% (w/v) crystal violet for 30 min. The wells were then washed with PBS and the crystal violet stain was solubilized with 30% acetic acid. The solution was diluted 20 times and biofilm biomass was estimated by measuring the crystal violet stained biofilm remnants, which absorbs at 595 nm.

[2] = test system: HeLa cells; assay: PrestoBlue cell viability assay; assay type: cell-based; settings: 200 mM vancomycin; 2 and 24 h incubation; hydrochloride
Description: HeLa cells were cultured in Dulbecco's Modified Eagle Medium supplemented with 10% fetal bovine serum and 1% penicillin/streptomycin at 37° C. in 5% CO2 in a humidified atmosphere. The cells were seeded to 100% confluence in clear 96-well tissue culture plates (Costar, Corning, N.Y., USA) for 24 h. The cells were then exposed to the different treatments in media and incubated for the specified time. After treatment, the cells were washed in sterile phosphate buffered saline and incubated in 100 μL/well of DMEM (10% FBS, 1% penicillin/streptomycin). Cell viability was evaluated using the PrestoBlue assay (Invitrogen, USA), following the manufacturer's instructions. Briefly, 10 μL of PrestoBlue assay reagent was directly added to each well and the plates were incubated at the cell culture incubator (37° C. and 5% CO2) for 2 h. The absorbance at 570 and 600 nm were then measured using a SpectraMax i3 microplate reader (Molecular Device Inc., Sunnyvale, Calif.). All assays were performed in triplicates.

## CN[C@H](CC(C)C)C(=O)N[C@H]1C(=O)N[C@@H](CC(N)=O)C(=O)N[C@H]2C(=O)N[C@H]3C(=O)N[C@H](C(=O)N[C@H](C(=O)O)c4cc(O)cc(O)c4-c4cc3ccc4O)[C@H](O)c3ccc(c(Cl)c3)Oc3cc2cc(c3O[C@@H]2O[C@H](CO)[C@@H](O)[C@H](O)[C@H]2O[C@H]2C[C@](C)(N)[C@H](O)[C@H](C)O2)Oc2ccc(cc2Cl)[C@H]1O [vancomycin, vancomycin hydrochloride]
[1]; 200 mM vancomycin, 24 h incubation
  biofilm disruption: promising results
[1]; 2 to 256 ppm, 24 h, preformed biofilms
  biofilm disruption: do not disrupt preformed biofilms
[2]
  in vitro cytotoxicity: extremely toxic; also recorded: extreme cell toxicity
